Measurements as given in PubChem BioAssay AID1033 (Sanford-Burnham Center for Chemical Genomics, 2008).
Activity calls are given as the source filed them. No rule for the calls is given here.

Each compound was assayed against Chaperone protein DnaK (Escherichia coli (strain K12)) (UniProt P0A6Y8) (assay: E. coli DnaK SBD ligand binding – biophysical, NMR, chaperone (AID 1033)). Conditions: Purified DnaK SBD.
Chaperone protein DnaK (Escherichia coli (strain K12)), sequence (P0A6Y8 whole entry, looked up): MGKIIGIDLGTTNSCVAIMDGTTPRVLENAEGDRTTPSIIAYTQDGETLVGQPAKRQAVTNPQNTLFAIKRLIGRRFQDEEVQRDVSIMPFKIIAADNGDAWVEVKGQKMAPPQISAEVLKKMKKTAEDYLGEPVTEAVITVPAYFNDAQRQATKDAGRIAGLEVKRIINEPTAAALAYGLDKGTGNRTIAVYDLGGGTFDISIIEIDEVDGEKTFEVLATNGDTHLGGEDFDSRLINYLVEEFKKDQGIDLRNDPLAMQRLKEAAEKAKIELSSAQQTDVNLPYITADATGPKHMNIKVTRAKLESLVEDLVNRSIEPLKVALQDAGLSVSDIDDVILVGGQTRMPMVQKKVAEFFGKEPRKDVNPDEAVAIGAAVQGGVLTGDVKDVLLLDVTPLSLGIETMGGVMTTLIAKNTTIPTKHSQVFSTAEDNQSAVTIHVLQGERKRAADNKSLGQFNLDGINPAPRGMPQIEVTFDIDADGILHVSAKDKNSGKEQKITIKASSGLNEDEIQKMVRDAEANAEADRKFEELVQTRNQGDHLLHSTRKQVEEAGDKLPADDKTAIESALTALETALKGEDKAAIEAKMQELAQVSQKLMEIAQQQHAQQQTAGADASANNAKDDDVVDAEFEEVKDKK
With C[n+]1ccc(C(=O)[O-])cc1 the Kd was > 4 mM (inactive). O=C1C2C3CCC(O3)C2C(=O)N1c1cccc(F)c1 (configuration not stated) was tested, and the Kd was > 4 mM (inactive). With CCc1c(C)n([O-])c2c([n+]1=O)CCC2 the Kd was > 4 mM (inactive). For O=C1c2ccncc2C(=O)N1CNc1ccccn1, the Kd was > 4 mM (inactive). With CC(=O)Nc1nnc(-c2ccco2)o1 the Kd was > 4 mM (inactive). For Cc1nnc(SCC(=O)NCc2ccccc2)[nH]c1=O, the Kd was > 4 mM (inactive). In the case of Nc1ncnc2nc[nH]c12, the Kd is reported as > 4 mM (inactive). For Cc1nnsc1-c1onc(C)c1C(=O)O, the Kd was > 4 mM (inactive). NC(=O)CN=Cc1c(O)[nH]c2ccccc12 was tested, and the Kd was > 4 mM (inactive). With CSc1ncc(C(=O)O)n1Cc1ccccc1 the Kd was > 4 mM (inactive). For C=CCCCCCCCCCCCC(O)CC(O)COC(C)=O (configuration not stated) (tested in a mixture with another compound), the Kd was > 4 mM (inactive). For CS(=O)(=O)Nc1ccccc1C(=O)c1ccccc1, the Kd was > 4 mM (inactive). With c1ccc(Cc2nnc(-c3ccccc3)o2)cc1 the Kd was > 4 mM (inactive). With O=C(O)CCCN1CNC(=S)NC1 the Kd was > 4 mM (inactive). With O=c1/c(=C\c2cccnc2)sc2nc3ccccc3n12 the Kd was > 4 mM (inactive). CC(=O)Nc1cccc(-c2nc3ccccc3c(=O)o2)c1 was tested, and the Kd was > 4 mM (inactive). In the case of COC(=O)c1sccc1S(=O)(=O)N1CCCC1, the Kd is reported as > 4 mM (inactive). Nc1cccc(S(=O)(=O)N2CCCCC2)c1 was tested, and the Kd was > 4 mM (inactive). With CC(=O)Nc1nnc(-c2ccccn2)o1 the Kd was > 4 mM (inactive). With c1cncc(-c2nnc(-c3cccnc3)nn2)c1 the Kd was > 4 mM (inactive). Cc1cc(C(=O)NCc2cccs2)cs1 was tested, and the Kd was > 4 mM (inactive). In the case of CC(=O)c1cccc(NC(=O)N2CCc3ccccc3C2)c1, the Kd is reported as > 4 mM (inactive). CN1CC(=O)Nc2ccc([N+](=O)[O-])cc2C1=O was tested, and the Kd was > 4 mM (inactive). For COCc1cc(=O)oc2cc(N)ccc12, the Kd was > 4 mM (inactive). With NC1=NC(=O)/C(=C\c2ccccc2)S1 the Kd was > 4 mM (inactive). In the case of O=C1NCCCC1C(=O)N1CCCCC1 (configuration not stated), the Kd is reported as > 4 mM (inactive). For c1cc(C(N2CCOCC2)N2CCOCC2)ccn1, the Kd was > 4 mM (inactive). Cn1c(=O)c2ccccc2n(Cc2ccccc2F)c1=O was tested, and the Kd was > 4 mM (inactive). In the case of COc1ccc(O)c(-c2cn[nH]c2-c2cccs2)c1, the Kd is reported as > 4 mM (inactive). In the case of CC(=O)Nc1ccc(S(N)(=O)=O)cc1, the Kd is reported as > 4 mM (inactive). For CC(=O)NS(=O)(=O)c1ccc(C)cc1, the Kd was > 4 mM (inactive). For NCc1cn2ccccc2n1, the Kd was > 4 mM (inactive). With CCc1ccc(/C=N/n2cnnc2)cc1 the Kd was > 4 mM (inactive). In the case of COc1cccc2onc(N)c12, the Kd is reported as > 4 mM (inactive). In the case of NC(=O)CNC(=O)c1ccccc1, the Kd is reported as > 4 mM (inactive). For O=C(O)C1C(=O)NCC1c1ccccc1 (configuration not stated), the Kd was > 4 mM (inactive). O=C1CSC(=Nc2cccc(C(F)(F)F)c2)N1 was tested, and the Kd was > 4 mM (inactive). COc1cc2c3cc1Oc1cc(ccc1O)C[C@@H]1c4c(cc(OC)c(O)c4Oc4ccc(cc4)C[C@@H]3N(C)CC2)CC[N+]1(C)C was tested, and the Kd was > 4 mM (inactive). In the case of COC(=O)c1cc(C)on1, the Kd is reported as > 4 mM (inactive). O=S(=O)(c1cccc2cccnc12)N1CCOCC1 was tested, and the Kd was > 4 mM (inactive). C=C1C2CC[C@@]3(C)[C@H](c4ccoc4)OC(=O)C[C@]13O[C@H]1CC(=O)C(C)(C)[C@H](C(O)C(=O)OC)[C@@]21C (some centres not stated) was tested, and the Kd was > 4 mM (inactive). In the case of CCn1ncc(Cl)c1C(=O)Nc1ccncc1, the Kd is reported as > 4 mM (inactive). With Cc1ccc(S(=O)(=O)CCc2ccccn2)cc1 the Kd was > 4 mM (inactive). In the case of Cc1ccc(NC(=O)C2CCN(S(C)(=O)=O)CC2)cc1, the Kd is reported as > 4 mM (inactive). For O=C(Nc1ccc(F)cc1F)c1ccco1, the Kd was > 4 mM (inactive). CC[C@H]1CN2CCC1C[C@@H]2[C@@H](O)c1ccnc2ccc(OC)cc12 (some centres not stated) was tested, and the Kd was > 4 mM (inactive). With CN1CCN(c2ccc(C(=O)O)cc2)CC1 the Kd was > 4 mM (inactive). In the case of O=C1NC(=S)NC(=O)C1=Cc1cccs1, the Kd is reported as > 4 mM (inactive). For OCC1Cc2ccccc2CN1 (configuration not stated), the Kd was > 4 mM (inactive). Cn1c(C(=O)O)ccc1S(N)(=O)=O was tested, and the Kd was > 4 mM (inactive). For O=C(NC(=S)NN1CCOCC1)c1cccs1, the Kd was > 4 mM (inactive). Cn1c(=O)cc(N2CCCCC2)[nH]c1=O was tested, and the Kd was > 4 mM (inactive). In the case of Cc1occc1C(=O)Nc1ccc2c(c1)CCC2, the Kd is reported as > 4 mM (inactive). For CC(C)(C(N)=O)/[N+]([O-])=C\c1ccccc1, the Kd was > 4 mM (inactive). With O=C(NC1CC1)c1ccccc1[N+](=O)[O-] the Kd was > 4 mM (inactive). C=C1C2=CC(=O)O[C@@H](c3ccoc3)[C@]2(C)CCC1[C@@]1(C)C=CC(=O)C(C)(C)[C@@H]1CC(=O)OC (some centres not stated) was tested, and the Kd was > 4 mM (inactive). CC(=O)Nc1ccc(-c2cn3ccsc3n2)cc1 was tested, and the Kd was > 4 mM (inactive). CC1(C)SCC(C(=O)O)N1C=O (configuration not stated) was tested, and the Kd was > 4 mM (inactive). In the case of Cc1cc(C)n(CC(=O)NC2CCCCC2)n1, the Kd is reported as > 4 mM (inactive). For O=[N+]([O-])c1cccc(CN2CCC(O)CC2)c1, the Kd was > 4 mM (inactive). With O=C1CC(c2ccccc2)n2ncnc2N1 (configuration not stated) the Kd was > 4 mM (inactive). Cc1ccc(/C=C2/C(=O)N=C(N)N2C)s1 was tested, and the Kd was > 4 mM (inactive). With OCc1ccc2occc2c1 the Kd was > 4 mM (inactive). Nc1ccccc1C(=O)N1CCNC(=O)C1 was tested, and the Kd was > 4 mM (inactive). For C=C1CCC(C2CC(=O)OC2=O)C(=O)CCC2C1CC2(C)C (configuration not stated), the Kd was > 4 mM (inactive). COc1c(O)cc2c(-c3ccccc3)cc(=O)oc2c1OC was tested, and the Kd was > 4 mM (inactive). For O=C(O)c1cc(O)c(O)c(O)c1, the Kd was > 4 mM (inactive). In the case of OCc1ccc2c(c1)OCCCO2, the Kd is reported as > 4 mM (inactive). In the case of CC(=O)c1sc(NC(=O)C=C(C)C)nc1C, the Kd is reported as > 4 mM (inactive). With O=c1c2ccccc2nc2n1CCCCN2 the Kd was > 4 mM (inactive). In the case of CSc1ccccc1NC(=O)c1cccnc1, the Kd is reported as > 4 mM (inactive). In the case of CC(=O)c1c(C)nn(CC(=O)O)c1C, the Kd is reported as > 4 mM (inactive). With CS(=O)(=O)N1CCC(C(=O)NC2CCCC2)CC1 the Kd was > 4 mM (inactive). For O=S1(=O)CCC2CC=CCC21 (configuration not stated), the Kd was > 4 mM (inactive). With C/C=C/C(=O)Nc1ccc(NC(C)=O)cc1 the Kd was > 4 mM (inactive). Nc1cccc(NC(=O)c2ccco2)c1 was tested, and the Kd was > 4 mM (inactive). In the case of NCc1ccc(S(=O)(=O)O)cc1, the Kd is reported as > 4 mM (inactive). With O=C1NC(=S)N/C1=C\c1cccnc1 the Kd was > 4 mM (inactive). In the case of Cc1cc(C)n2nc(C(=O)Nc3cccnc3)nc2n1, the Kd is reported as > 4 mM (inactive). With CC(=O)c1c(O)n(C)c(=S)n(C)c1=O the Kd was > 4 mM (inactive). With C[C@H](CCC(=O)O)[C@H]1CCC2C3C(CC[C@@]21C)[C@@]1(C)CC[C@@H](O)C[C@H]1C[C@H]3O (some centres not stated) the Kd was > 4 mM (inactive). For NC(=O)Cc1nc(-c2ccc(F)cc2)cs1, the Kd was > 4 mM (inactive). Work on O=C(Nc1ccc2[nH]ccc2c1)c1cccs1 yielded a Kd of under 0.2 mM. For CC12CNCC(C)(CNC1)C2O (configuration not stated), the Kd was > 4 mM (inactive). In the case of NC(=O)c1c(Cl)nsc1-c1ccccc1Cl, the Kd is reported as > 4 mM (inactive). CC(=O)Nc1cccc(-c2nnc(-c3ccccc3)o2)c1 was tested, and the Kd was > 4 mM (inactive). With COC(=O)C(O)c1ccccc1 (configuration not stated) the Kd was > 4 mM (inactive). O=C(O)c1ccnc2ccccc12 was tested, and the Kd was > 4 mM (inactive). For NC1Cc2ccccc2C1, the Kd was > 4 mM (inactive). Cc1cccc(C)c1N1C(=O)CCC1=O was tested, and the Kd was > 4 mM (inactive). With Cc1ncoc1C(=O)Nc1ncc([N+](=O)[O-])s1 the Kd was > 4 mM (inactive). In the case of Cc1cc(=O)n2ncn(Cc3ccccc3)c2n1, the Kd is reported as > 4 mM (inactive). For C=C1CSc2nc(=O)c3c(C)c(C)sc3n21, the Kd was > 4 mM (inactive). For NC(=O)c1ccc(-c2ccccn2)s1, the Kd was > 4 mM (inactive). With Cc1nnc2n(c1=O)N=C(c1ccccc1)CS2 the Kd was > 4 mM (inactive). OCc1snnc1-c1ccccc1 was tested, and the Kd was > 4 mM (inactive). For COc1ccc(Cl)cc1NC(=O)c1ccco1, the Kd was > 4 mM (inactive). With COC(=O)c1ccccc1NC(=O)c1cc[n+]([O-])cc1 the Kd was > 4 mM (inactive). In the case of CNc1nnc(CSc2nc(C)cc(C)n2)s1, the Kd is reported as > 4 mM (inactive). Cn1nnc2cc(C(=O)Nc3cccnc3)ccc21 was tested, and the Kd was > 4 mM (inactive). CCOC(=O)c1ccc(F)c(F)c1 was tested, and the Kd was > 4 mM (inactive). With Brc1cccc(-c2nnco2)c1 the Kd was > 4 mM (inactive). CC(=O)NN1C(=O)/C(=C\c2ccc(O)cc2)SC1=S was tested, and the Kd was > 4 mM (inactive). CS(=O)(=O)NC1CCN(Cc2ccccc2)CC1 was tested, and the Kd was > 4 mM (inactive). Cc1cc(C)n(-c2nncn2N)n1 was tested, and the Kd was > 4 mM (inactive). With OC1COCc2nc3ccccc3n2C1 (configuration not stated) the Kd was > 4 mM (inactive). In the case of [O-][n+]1onc2c1CCc1c-2nc(-c2ccccc2)n1O, the Kd is reported as > 4 mM (inactive). C[C@@H]1O[C@@H](O[C@H]2[C@@H](Oc3cc(O)c4c(c3)O[C@H](c3ccc(O)cc3)CC4=O)O[C@H](CO)[C@@H](O)[C@@H]2O)[C@H](O)[C@H](O)[C@H]1O was tested, and the Kd was > 4 mM (inactive). In the case of CSc1ccc(C2NC(=O)CCC2[N+](=O)[O-])cc1 (configuration not stated), the Kd is reported as > 4 mM (inactive). In the case of CS(=O)(=O)c1ccccc1C(=O)Nc1nccs1, the Kd is reported as > 4 mM (inactive). In the case of c1nnc2c3c4c(sc3ncn12)CCCC4, the Kd is reported as > 4 mM (inactive). Cc1cc(C(=O)N2CCCCCC2)cs1 was tested, and the Kd was > 4 mM (inactive). With COc1ccc(C2=CC(=O)C=CC2=O)cc1 the Kd was > 4 mM (inactive). For O=CN1CCN(C(=O)c2ccco2)CC1, the Kd was > 4 mM (inactive). For CCN1C(=O)N(CO)C2C1N(C)C(=O)N2C (configuration not stated), the Kd was > 4 mM (inactive). With Cc1cc(C)nc(/N=C(/N)Nc2cccc(F)c2)n1 the Kd was > 4 mM (inactive). Cc1occc1C(=O)NCc1ccncc1 was tested, and the Kd was > 4 mM (inactive). In the case of C=CCn1c(=S)[nH]c2ccc(Br)cc2c1=O, the Kd is reported as > 4 mM (inactive). For Cc1cc(NC(=O)c2cccc(S(C)(=O)=O)c2)no1, the Kd was > 4 mM (inactive). With CC(=O)O[C@H]1CCC2(C)C3=C(CCC2C1(C)C)[C@]1(C)CCC(C(C)CCC=C(C)C)[C@@]1(C)CC3 (some centres not stated) the Kd was > 4 mM (inactive). COC(=O)c1ccc(Cl)c(NC(C)=O)c1 was tested, and the Kd was > 4 mM (inactive). For Cn1c(NCc2ccccc2O)nc2ccccc21, the Kd was > 4 mM (inactive).
